What was measured:
CS99 cells = test: Endometrial cancer in vivo, CS99 cells i.p. in athymic nude mice (survival, MRI tumor volume); set-up: species or system mouse
Description: CS99 cells were obtained from K. Moxley (OUHSC). 10^6 cells were injected i.p. into Athymic Nude Foxnlnu mice (Envigo) mice. Gd-DTPA (MRI contrast agent; administered i.v. via a tail-vein-catheter) was used to detect tumors. OKN-077 was administered 150 mg/kg daily in drinking water.

[1] = system: orthotopic GBM xenografts; conditions: cited from earlier work
Sodl G93A mutant mice [2] = test: Spinal cord histology (NeuN motor neuron counts, microglia, astrocytes) in G93A mice; type: in vivo, mouse
Description: (§1) ALS is a debilitating disease that according to the ALS Association affects two per 100,000 people in the USA. There is no cure and the average survival time after diagnosis is three years. In this study, the inventors investigated the impact of treatment with […], an antioxidant, on ALS progression. Female Sodl G93A mutant mice, an established mouse model of ALS, and wildtype (wt) mice were treated with OKN-077 for three months starting at the age of 60 days, before the mice became symptomatic, and compared to age matched untreated controls (both transgenic and wt). Disease progression measured by monitoring disease score on a scale of 1-5 (based on hind limb paralysis and dysfunction) was delayed in the treated mice. All treated mice were at stage 2 at the time of sacrifice at 145 days (end stage disease is ˜160 days), while untreated transgenic controls had progressed to stage ≥2. […] The untreated transgenic control mice had on average 10.7 ±2.1 alpha motor neurons per ventral horn, while the treated transgenic mice had 17.5 ±4.5 alpha motor neurons (a 64% increase). […] These findings indicate that OKN-077 may potentially be considered as a possible therapeutic agent for ALS, and certainly warrants further investigation.

normal cells = test: Effects on normal cells; conditions: stated without data
TGF-β1 = TGF-β1 pathway expression; conditions: gene not directly down-regulated; stated without data
Sodl G93A mutant mice [3] = test: MRI (diffusion, perfusion) and MR spectroscopy of spinal cord in G93A mice; type: in vivo, mouse
Description: as §1

Sodl G93A mutant mice [4] = test: ALS disease progression score in Sod1 G93A mutant mice; type: in vivo, mouse
Description: as §1

CD44v6 = CD44v6 biomarker regulation; conditions: biomarker directly associated with metastasis; stated without data
[5] = Towner et al., Translational Oncology 2019
[6] = previous assessment by the inventors

## CC(C)(C)/[N+]([O-])=C/c1ccc(S(=O)(=O)[O-])cc1S(=O)(=O)[O-].[Na+].[Na+] [OKN-077, 2,4-Disulfonyl-N-Tert-Butylnitrone, 2,4-disulfonyl α-phenyl tertiary butyl nitrone]
CS99 cells; 150 mg/kg daily in drinking water, FIG. 7
  Survival of tumor-bearing mice compared to untreated (UT): significant increase
CS99 cells; compared to untreated tumors, FIG. 8
  Tumor size on MR images at 21 days after CS99 cell implantations: consistently small tumors
CS99 cells; ~21 days after cell implantation, p<0.0001, FIG. 9
  Tumor volumes compared to UT mice: significantly decrease
[1]; [5]
  TMZ-Resistant Glioblastoma (GBM) tumor growth: suppresses
  Temozolomide (TMZ) sensitivity: increases
[1]; [6]
  Survival in orthotopic GBM xenografts: increasing
  Tumor volumes in orthotopic GBM xenografts: decreasing
Sodl G93A mutant mice [2]; NeuN stained ventral horn, treated vs untreated G93A p=0.0197
  Motor neuron loss: prevents
Sodl G93A mutant mice [2]; mouse, in vivo
  Astrocyte activation: didn't affect
Sodl G93A mutant mice [2]; treated transgenic mice, untreated transgenic 10.7 ±2.1
  Alpha motor neurons per ventral horn: 17.5 ±4.5
Sodl G93A mutant mice [2]; treated vs untreated G93A mice
  Microglia activation: decreases
Sodl G93A mutant mice [2]; treated vs untreated G93A mice, p=0.0026
  Ramified, non-activated microglia: significantly more
Sodl G93A mutant mice [2]; treated vs untreated transgenic mice
  Increase in alpha motor neurons versus untreated transgenic mice: 64%
Sodl G93A mutant mice [2]; treatment p=0.23, FIGS. 5B and 5C
  Astrocyte proliferation: doesn't affect
Sodl G93A mutant mice [2]; two-way ANOVA, treatment p=0.0244, FIG. 5A
  Microglia proliferation (number of Ibal+ cells): treatment effect
Normal cells
  Adverse effects on normal cells: no adverse effects
TGF-β1
  TGF-β1 protein expression: decreased
Sodl G93A mutant mice [3]; stated for ALS c (non-treated) vs ALS t (treated) mice, FIG. 6C
  Myo-inositol (Myo-Ins)/creatine ratio by MRS: significant decrease
Sodl G93A mutant mice [3]; treated vs untreated
  Spinal cord metabolite myo-inositol: significantly elevated
Sodl G93A mutant mice [3]; treated vs untreated, p<0.001
  Apparent diffusion coefficient (ADC) in the lumbar region of the spinal cord: decreased
Sodl G93A mutant mice [3]; treated vs untreated, p<0.01
  Relative tissue blood flow in the spinal cord: significantly increase
Sodl G93A mutant mice [3]; treated vs untreated, p<0.05
  ADC in the surrounding muscle tissue: increased
Sodl G93A mutant mice [4]; FIG. 2C
  Delay in reaching the score of 2 versus untreated G93A mice: around 14 days
Sodl G93A mutant mice [4]; FIG. 2D, untreated G93A mice reached score 3 around 136 days of age
  Highest disease score reached: ≤ 2
Sodl G93A mutant mice [4]; female G93A mice treated three months from age 60 days, vs untreated transgenic controls
  Disease progression (disease score based on hind limb paralysis and dysfunction): delayed
Sodl G93A mutant mice [4]; sacrifice at 145 days, scale of 1-5, all treated mice
  Disease stage at the time of sacrifice: 2
Sodl G93A mutant mice [4]; treated vs untreated G93A mice (FIG. 2B)
  Disease onset: doesn't delay
CD44v6
  CD44v6 regulation: downregulates

From patent publication US20220354815A1, “OKN-007 AS A THERAPEUTIC AGENT” (Oklahoma Medical Research Foundation, priority 2019, published 2022)
